Activity calls are given as the source filed them. How the calls were made is not given here.

The data set has as its system CCRIS mutagenicity, Ames/micronucleus/aberration tests. In words: CCRIS mutagenicity studies.
Setting [1] is: Test System: AMES SALMONELLA TYPHIMURIUM, Strain/Indicator: TA98, Metabolic Activation: NONE, Method: STANDARD PLATE.
The mark [2] stands for this setting: Test System: AMES SALMONELLA TYPHIMURIUM, Strain/Indicator: TA98, Metabolic Activation: RAT, LIVER, S-9, AROCLOR 1254, Method: STANDARD PLATE.
Setting [3] is: Test System: AMES SALMONELLA TYPHIMURIUM, Strain/Indicator: TA100, Metabolic Activation: NONE, Method: STANDARD PLATE.
Where [4] appears, read: Test System: AMES SALMONELLA TYPHIMURIUM, Strain/Indicator: TA100, Metabolic Activation: RAT, LIVER, S-9, AROCLOR 1254, Method: STANDARD PLATE.
The mark [5] stands for this setting: Test System: AMES SALMONELLA TYPHIMURIUM, Strain/Indicator: TA1535, Metabolic Activation: NONE, Method: STANDARD PLATE.
Setting [6] is: Test System: AMES SALMONELLA TYPHIMURIUM, Strain/Indicator: TA1537, Metabolic Activation: NONE, Method: STANDARD PLATE.
The mark [7] stands for this setting: Test System: AMES SALMONELLA TYPHIMURIUM, Strain/Indicator: TA1537, Metabolic Activation: RAT, LIVER, S-9, AROCLOR 1254, Method: STANDARD PLATE.
[8] abbreviates: Test System: AMES SALMONELLA TYPHIMURIUM, Strain/Indicator: TA1538, Metabolic Activation: NONE, Method: STANDARD PLATE.
Where [9] appears, read: Test System: AMES SALMONELLA TYPHIMURIUM, Strain/Indicator: TA1538, Metabolic Activation: RAT, LIVER, S-9, AROCLOR 1254, Method: STANDARD PLATE.

In the case of `O=C(O)c1cc(=O)c2c(OCC(O)COc3cccc4oc(C(=O)O)cc(=O)c34)cccc2o1`, the mutagenic call (Test System: AMES SALMONELLA TYPHIMURIUM, Strain/Indicator: TA97, Metabolic Activation: HAMSTER, LIVER, S-9, AROCLOR 1254, Method: STANDARD PLATE) was “inactive; negative”; the mutagenic call (Test System: AMES SALMONELLA TYPHIMURIUM, Strain/Indicator: TA97, Metabolic Activation: NONE, Method: STANDARD PLATE) is “inactive; negative”; the mutagenic call (Test System: AMES SALMONELLA TYPHIMURIUM, Strain/Indicator: TA97, Metabolic Activation: RAT, LIVER, S-9, AROCLOR 1254, Method: STANDARD PLATE) is “inactive; negative”; the mutagenic call (Test System: AMES SALMONELLA TYPHIMURIUM, Strain/Indicator: TA98, Metabolic Activation: HAMSTER, LIVER, S-9, AROCLOR 1254 (2.5-20%), Method: STANDARD PLATE) was “inactive; negative”; the mutagenic call (Test System: AMES SALMONELLA TYPHIMURIUM, Strain/Indicator: TA98, Metabolic Activation: HAMSTER, LIVER, S-9, AROCLOR 1254, Method: STANDARD PLATE) is “inactive; negative”; the mutagenic call under setting [1] is “inactive; negative”. Moreover, the mutagenic call (Test System: AMES SALMONELLA TYPHIMURIUM, Strain/Indicator: TA98, Metabolic Activation: RAT, LIVER, S-9, AROCLOR 1254 (2.5-20%), Method: STANDARD PLATE) was “inactive; negative”; the mutagenic call under setting [2] was “inactive; negative”; the mutagenic call (Test System: AMES SALMONELLA TYPHIMURIUM, Strain/Indicator: TA100, Metabolic Activation: HAMSTER, LIVER, S-9, AROCLOR 1254, Method: STANDARD PLATE) was “inactive; negative”; the mutagenic call under setting [3] is “inactive; negative”; the mutagenic call under setting [4] was “inactive; negative”; the mutagenic call (Test System: AMES SALMONELLA TYPHIMURIUM, Strain/Indicator: TA1535, Metabolic Activation: HAMSTER, LIVER, S-9, AROCLOR 1254, Method: STANDARD PLATE) was “inactive; negative”. In addition, the mutagenic call by setting is: under setting [5], “inactive; negative”; (Test System: AMES SALMONELLA TYPHIMURIUM, Strain/Indicator: TA1535, Metabolic Activation: RAT, LIVER, S-9, AROCLOR 1254, Method: STANDARD PLATE) “inactive; negative”; (Test System: AMES SALMONELLA TYPHIMURIUM, Strain/Indicator: TA1537, Metabolic Activation: HAMSTER, LIVER, S-9, AROCLOR 1254, Method: STANDARD PLATE) “inactive; negative”; under setting [6], “inactive; negative”; under setting [7], “inactive; negative”; (Test System: AMES SALMONELLA TYPHIMURIUM, Strain/Indicator: TA1538, Metabolic Activation: HAMSTER, LIVER, S-9, AROCLOR 1254 (2.5-20%), Method: STANDARD PLATE) “inactive; negative”. Besides, the mutagenic call (Test System: AMES SALMONELLA TYPHIMURIUM, Strain/Indicator: TA1538, Metabolic Activation: HAMSTER, LIVER, S-9, AROCLOR 1254, Method: STANDARD PLATE) is “inactive; negative”; the mutagenic call under setting [8] was “inactive; negative”; the mutagenic call (Test System: AMES SALMONELLA TYPHIMURIUM, Strain/Indicator: TA1538, Metabolic Activation: RAT, LIVER, S-9, AROCLOR 1254 (2.5-20%), Method: STANDARD PLATE) is “inactive; negative”; the mutagenic call under setting [9] is “inactive; negative”; the mutagenic call (Test System: MOUSE LYMPHOMA, Strain/Indicator: L5178Y (TK+/TK-), Metabolic Activation: NONE, Method: SUSPENSION/PLATE) is “inactive; negative; reevaluation of results: negative”; the mutagenic call (Test System: MOUSE LYMPHOMA, Strain/Indicator: L5178Y (TK+/TK-), Metabolic Activation: RAT, LIVER, S-9, AROCLOR 1254, Method: SUSPENSION/PLATE) is “inactive; negative. reevaluation of results: negative”.
For `Nc1c(O)cc(Cc2cc(Cl)c(N)c(OS(=O)(=O)O)c2)cc1Cl`, the mutagenic call was “inactive; negative” (Test System: AMES SALMONELLA TYPHIMURIUM, Strain/Indicator: TA1538, Metabolic Activation: NONE, Method: PREINCUBATION) and “inactive; negative” under setting [8].
Consider `O=P1(N(CCCl)CCCl)NC(OO)CCO1` (stereo not given), for which the mutagenic call (Test System: UDS HUMAN LYMPHOCYTES, Strain/Indicator: THY INCORP (NON-S-PHASE), Metabolic Activation: NONE, Method: LIQUID SCINTILLATION COUNTING) was “active; positive”.
For `O=C1c2c(O)ccc([N+](=O)[O-])c2C(=O)c2c([N+](=O)[O-])ccc(O)c21`, the mutagenic call is “active; positive” (Test System: AMES SALMONELLA TYPHIMURIUM, Strain/Indicator: TA98, Metabolic Activation: HAMSTER, LIVER, S-9, AROCLOR 1254 (10%), Method: PREINCUBATION); “active; positive” (Test System: AMES SALMONELLA TYPHIMURIUM, Strain/Indicator: TA98, Metabolic Activation: NONE, Method: PREINCUBATION); “active; positive” under setting [1]; “active; positive” (Test System: AMES SALMONELLA TYPHIMURIUM, Strain/Indicator: TA98, Metabolic Activation: RAT, LIVER, S-9, AROCLOR 1254 (10%), Method: PREINCUBATION); “active; positive” under setting [2]; “active; positive” (Test System: AMES SALMONELLA TYPHIMURIUM, Strain/Indicator: TA100, Metabolic Activation: HAMSTER, LIVER, S-9, AROCLOR 1254 (10%), Method: PREINCUBATION). The mutagenic call is “active; positive” (Test System: AMES SALMONELLA TYPHIMURIUM, Strain/Indicator: TA100, Metabolic Activation: NONE, Method: PREINCUBATION); “active; positive” under setting [3]; “active; positive” (Test System: AMES SALMONELLA TYPHIMURIUM, Strain/Indicator: TA100, Metabolic Activation: RAT, LIVER, S-9, AROCLOR 1254 (10%), Method: PREINCUBATION); “active; positive” under setting [4]; “active; positive” (Test System: AMES SALMONELLA TYPHIMURIUM, Strain/Indicator: TA1535, Metabolic Activation: HAMSTER, LIVER, S-9, AROCLOR 1254 (10%), Method: PREINCUBATION); “active; positive” (Test System: AMES SALMONELLA TYPHIMURIUM, Strain/Indicator: TA1535, Metabolic Activation: NONE, Method: PREINCUBATION). In addition, the mutagenic call is “inactive; negative” under setting [5]; “active; positive” (Test System: AMES SALMONELLA TYPHIMURIUM, Strain/Indicator: TA1535, Metabolic Activation: RAT, LIVER, S-9, AROCLOR 1254 (10%), Method: PREINCUBATION); “active; positive” (Test System: AMES SALMONELLA TYPHIMURIUM, Strain/Indicator: TA1537, Metabolic Activation: HAMSTER, LIVER, S-9, AROCLOR 1254 (10%), Method: PREINCUBATION); “active; positive” (Test System: AMES SALMONELLA TYPHIMURIUM, Strain/Indicator: TA1537, Metabolic Activation: NONE, Method: PREINCUBATION); “active; positive” under setting [6]; “active; positive” (Test System: AMES SALMONELLA TYPHIMURIUM, Strain/Indicator: TA1537, Metabolic Activation: RAT, LIVER, S-9, AROCLOR 1254 (10%), Method: PREINCUBATION). Moreover, the mutagenic call was “active; positive” under setting [7]; “active; positive” under setting [8]; “active; positive” under setting [9]; “active; positive” (Test System: AMES SALMONELLA TYPHIMURIUM, Strain/Indicator: TA1978, Metabolic Activation: NONE, Method: STANDARD PLATE); “active; positive” (Test System: AMES SALMONELLA TYPHIMURIUM, Strain/Indicator: TA1978, Metabolic Activation: RAT, LIVER, S-9, AROCLOR 1254, Method: STANDARD PLATE).
